# Reference: patent US12350244B2, “MEK-inhibitor for the treatment of viral and bacterial infections” (priority 2019, dated 2025)
# Read-outs that look alike come from different tables or passages of the source.
# What was measured:
# H1N1pdm09 = assay: Lung virus titration assay in mice (Example 11); type: in vivo, C57BL/6 mice; settings: for virus titer in the lung (control set to 100%): 24 h after infection
# Experimental: (A) After H1N1pdm09 infection female C57BL/6 mice were treated with either 2.8, 8.4 or 25 mg/kg PD-0184264 (left side) or with 25, 75 or 150 mg/Kg […] (left side) the oral route. 24 hrs after infection the animals were killed and lung was taken to prepare a 10% suspension. Virus titer was determined using the standard method. Virus titer of mice treated with the two MEK-inhibitors were compared to virus titer of mice treated with solvent (Control) alone. Virus tier in the lungs of control mice was set to 100% (black bar). Graphpad Prism 7 software was used to illustrate both figures.
# For oral application of 25 mg/kg, 2.5 mg of PD-0184264 were dissolved in 50 μl DMSO (Sigma-Aldrich, Germany) and further diluted with 0.15 ml Cremophor EL (Merck-Millipore, Germany) and 0.8 ml PBS (Gibco, Germany). For application of 8.4 mg/kg and 2.8 mg/kg, 0.84 mg or 0.28 mg PD-0184264 were dissolved with 50 μl DMSO (Sigma-Aldrich, Germany) and further diluted with 0.15 ml Cremophor EL/0.8 ml PBS.
# Eight week old female C57Bl/6 mice (Charles River Laboratories, Germany) with a body weight of 21.0-24.0 g at administration were used for antiviral studies. The animals were normally fed. Drinking water was available ad libitum.
# Drugs were administrated using a single dosing on test day 1 by oral gavage. The application speed was 15 s per dose with an administration volume of 200 μl.
# Mice were sacrificed 24 h post infection and lungs were weighed, transferred into a Lysing Matrix D tube (MP Bio) and BSS was applied in an amount of the 10-fold volume of the lung. Organs were shredded using the FastPrep FP 120 (Savant). To remove the cell debris the homogenates were centrifuged for 15 min at 2000 rpm and the supernatant collected. The determination of virus titer in homogenates was performed using the AVICEL® plaque assay as described previously (Haasbach et al. 2011, Mastrosovich et al. 2006).
# S. aureus 6850 [1] = assay: Over-night treatment, bacterial titers (CFU/ml), strain 6850; type: cell-based, Staphylococcus aureus; settings: for effect on bacterial titers: over-night treatment, concentrations as indicated in figures
# influenza virus = settings: mouse model, cited from earlier work; for effect of treatment started late post infection: 48 h or more post infection, previous studies
# S. aureus = assay: Resistance development under constant treatment for 17 days; type: cell-based, Staphylococcus aureus; settings: 24 h cycles repeated for 17 days
# MRSA strain USA300 [2] = assay: Over-night treatment, bacterial titers (CFU/ml), MRSA USA300; type: cell-based, Staphylococcus aureus; settings: for effect on bacterial titers: over-night treatment, concentrations as indicated in figures
# [3] = system: influenza virus strain A/Regensburg/D6/2009, (RB1, H1N1pdm09); assay: Lung virus titer in influenza-infected mice (Example 1); type: in vivo, C57BL/6 mice
# Experimental: 8 weeks old C57BL/6 mice (five per group) were infected with 1.5×10^5 PFU (5×MLD50) of the influenza virus strain A/Regensburg/D6/2009, (RB1, H1N1pdm09). […] All animals received a volume of 200 μl per os. Mice were sacrificed 24 h post infection and lungs were weighed, transferred into a Lysing Matrix D tube (MP Bio) and BSS (buffered salt solution) in an amount of the 10-fold volume of the lung was applied to the samples. Organs were shredded using the FastPrep FP 120 (Savant). To remove the cell debris the homogenates were centrifuged for 15 min at 2000 rpm and the supernatant collected. The determination of virus titer in homogenates was performed using the AVICEL® plaque assay. Results are presented in FIG. 1 as virus titer (log 10) pfu/ml (left) or % virus titer (right). Virus titer was determined by two investigators independently. Mean values from all titrations were presented.
# MRSA strain USA300 [4] = assay: Bacterial growth under heat stress, MRSA USA300; type: cell-based, Staphylococcus aureus; settings: 20 μM over night, then 42° C. for 6 h
# Experimental: (§1) As the kinase is known to play an important role in bacterial stress resistance, bacterial growth under heat stress was monitored after treatment of the bacteria with the inhibitor PD-0184264. S. aureus strain 6850 and MRSA strain USA300 were treated over night with either solvent or 20 μM of the PD-0184264. The next day subcultures with the same amount of bacteria were prepared (confirmed by OD600 and plating on BHI agar) and further incubated at 42° C. for 6 h. Bacterial titers were then calculated via plating of serial dilutions on BHI agar plates. […] This is both observed for the methicillin-sensitive strain 6850 (black bars) as well as for the MRSA strain USA300 (grey bars). Impaired stress tolerance in the presence of the inhibitor is another indication that PD-0184264 directly targets the kinase PknB, which is an important mediator of stress resistance. In summary, the data provide strong circumstantial evidence, that PD-0184264 elicits its antibacterial action by inhibition of the bacterial kinase PknB.
# [5] = system: A549 cells infected with IAV (H1N1) and/or S. aureus 6850; type: cell-based
# S. aureus strain 6850 = assay: Bacterial growth under heat stress, strain 6850; type: cell-based, Staphylococcus aureus; settings: 20 μM over night, then 42° C. for 6 h
# Experimental: as §1
# [6] = system: Streptococcus pneumoniae strains TIGR4 (serotype 4) and D39 wt (serotype 2); assay: Growth of Streptococcus pneumoniae (OD600, CFU/ml); type: cell-based; settings: over-night treatment, different concentrations
# Experimental: Additionally, these kinases share high homology to cellular MAP kinases (e.g. ERK, JNK, p38). […] Thus, the impact of PD-0184264 on different strains of Streptococci pneumonia was analyzed. Streptococcus pneumoniae strains can be divided into different serotypes, which differ in their virulence and overall pathogenicity. To test for a serotype- or strain-independent effect, we used the encapsulated strains D39 and TIGR4, which are both virulent, but belong to different serotypes. […] Then, the OD600 was measured again (Results shown in FIG. 11A) and dilution series were objected to BHI agar plates to determine bacterial titers (Results shown in FIG. 11B).
# A549 cells [7] = assay: A549 cell viability (trypan blue) and LDH release; type: cell-based, human; settings: 1, 5, 10, 20, 50 or 100 μM, 24 or 48 hours
# Experimental: To rule out that the reduction in viral and intracellular bacterial replication was a result of a cytotoxic effect of PD-0184264 on A549 cells, cell viability in presence of increasing concentrations was monitored for 24 and 48 hours. Additionally, a LDH-Assay was performed to determine membrane rupture due to inhibitor treatment. […] A549 cells were treated for 24 (as shown in FIGS. 15A and C) or 48 (as shown in FIGS. 15B and D) hours with increasing concentrations of PD-0184264 (1, 5, 10, 20, 50 or 100 μM). After the incubation times, supernatants were taken for measurement of LDH release (shown in FIGS. 15C, D) using the CytoSelect LDH Cytotoxicity Assay Kit according to the manufacturer's instructions. Additionally, viable cells were counted by staining with trypan blue. Cell viability was normalized to DMSO-treated cells and is shown as % viability. […] Statistical significance was calculated by one-way ANOVA followed by Dunnett's multiple comparisons test (* p<0.05; ** p<0.01; 27 *** p<0.001).
# A549 cells [8] = assay: WST-assay; type: cell-based, human; settings: 24 h, FIG. 17C
# Experimental: A549 cells were seeded in a 96-well flat-bottom tissue plate (Greiner, Germany) and were grown overnight. […] Thereafter, 10 μl WST-1 reagent (Roche, Germany) was added to the culture medium and incubated for four hours. During this time, the stable tetrazolium salt WST-1 was cleaved to a soluble formazan by metabolically active cells in the culture. After this incubation period, the formazan dye formed was quantitated with ELISA reader at 405 nm. The measured absorbance directly correlated to the number of viable cells.
# S. aureus 6850 [9] = assay: Time-of-addition assay, bacterial growth; type: cell-based, Staphylococcus aureus
# [10] = system: strain A/Regensburg/D6/2009 Influenza H1N1pdm09; assay: Survival of infected mice with late start of treatment; type: in vivo, C57BL/6 mice; settings: 25 mg/kg oral BID
compound,measurement,setting,value
"O=C(NOCC1CC1)c1ccc(F)c(F)c1Nc1ccc(I)cc1Cl [CI-1040, 2-(2-chloro-4-iodophenylamino)-N-(cyclopropylmethoxy)-3,4-difluoro benzamide, reference compound]",doses showing any effect in reduction of virus titer,"H1N1pdm09; oral, 25, 75 or 150 mg/kg tested",≥ 75 mg/kg
same,effect on bacterial titers,S. aureus 6850 [1],effective
same,treatment window post infection,influenza virus; Haasbach et al. 2017 and further experiments of the applicant,at least 48 h
CC[C@H]1OC(=O)[C@H](C)[C@@H](O[C@H]2C[C@@](C)(OC)[C@@H](O)[C@H](C)O2)[C@H](C)[C@@H](O[C@@H]2O[C@H](C)C[C@H](N(C)C)[C@H]2O)[C@](C)(O)C[C@@H](C)C(=O)[C@H](C)[C@@H](O)[C@]1(C)O [Erythromycin],resistance development,S. aureus,readily develop resistances
"O=C(O)c1ccc(F)c(F)c1Nc1ccc(I)cc1Cl [PD-0184264, 2-(2-chloro-4-iodophenylamino)-N-3,4-difluoro benzoic acid]",resistance development,S. aureus,did not induce resistance
same,effect on bacterial titers,MRSA strain USA300 [2],very strong reduction in bacterial load
same,"virus titer in the lung, effect compared with CI-1040","[3]; 25 mg/kg PD-0184264 per os in an 8 h interval, 24 h post infection, FIG. 1",same effect as 150 mg/kg CI-1040
same,efficacy in vivo by oral administration,[3]; 25 and 75 mg/kg per os,effective
same,bacterial growth under heat stress,MRSA strain USA300 [4],strongly impaired
same,concentration at which reduction of the cytopathic effect is already shown,"[5]; co-infection, FIG. 5",15 µM
same,"cytopathic effect (CPE), cell monolayer","[5]; increasing concentrations, 24 h, IAV H1N1 MOI 0.001 and S. aureus 6850 MOI 0.1",reversed in a concentration dependent manner
same,virus titer in the lung (control set to 100%),H1N1pdm09; 2.8 mg/kg oral,approx. 70%
same,virus titer in the lung (control set to 100%),H1N1pdm09; 8.4 mg/kg oral,approx. 20%
same,virus titer in the lung (control set to 100%),H1N1pdm09; 25 mg/kg oral,approx. 10%
same,bacterial growth under heat stress,S. aureus strain 6850,strongly impaired
same,"sensitivity of both serotypes (OD600, bacterial titers)",[6],sensitive
same,"cell toxicity (viability, LDH release)",A549 cells [7],does not induce cell toxicity
same,bacterial growth,"S. aureus 6850 [1]; 10 μM, FIG. 4 (strains 6850 and USA300)",significant reduction of growth
same,effect on bacterial titers,S. aureus 6850 [1],very strong reduction in bacterial load
same,CC50,A549 cells [8],> 1580 µM
same,inhibition of bacterial growth compared with all other compounds,"S. aureus 6850 [9]; 0, 3 h and 6 h post inoculation, versus U0126 and gentamicin 0.5 or 2 μg/ml",strongest inhibition of bacterial growth
same,mode of antibacterial action,S. aureus 6850 [9]; after medium exchange and incubation without substances,bacteriostatic rather than a bactericidal action
same,mice protected (survival),[10]; treatment started 24 hours after infection,six out of eight
same,mice protected (survival),[10]; treatment started 48 hours after infection,five out of eight
same,mice protected (survival),[10]; treatment started 72 hours after infection,two out of eight
N#CC(=C(/N)Sc1ccccc1N)/C(C#N)=C(\N)Sc1ccccc1N [U0126],effect on bacterial titers,MRSA strain USA300 [2],minor reduction in bacterial titers
same,effect on bacterial titers,S. aureus 6850 [1],minor reduction in bacterial titers
CCOC(=O)C1=C[C@@H](OC(CC)CC)[C@H](NC(C)=O)[C@@H](N)C1 [oseltamivir],effect of treatment started late post infection,influenza virus,no longer effective
same,effect of treatment started late post infection,influenza virus; listed as Tamiflu,no effect
Gentamicin,resistance development,S. aureus,resistance development occurred during the first week of treatment
same,bacterial titers,"MRSA strain USA300 [2]; 0.5 μg/ml, over night",no reduction in bacterial titers
same,bacterial titers,"S. aureus 6850 [1]; 0.5 μg/ml, over night",no reduction in bacterial titers
